Legend:
[1] = tested on: zPTH1R; assay: Total inositol phosphate accumulation, COS-7 cells expressing zPTH1R; assay type: cell-based, zebrafish; details: ligand 10^−6 M, 30 mM LiCl
Method: (§1) In order to determine total inositol phosphate turnover for COS-7 cells expressing zPTH1R, zPTH3R, and hPTH1R, cells were grown in 6-well plates with COS-7 cells (approximately 200,00 cells/well transfected with either 1 μg/well of zPTH1R, zPTH3R, or hPTH 1R (stina)). Cells were cultured for 3 days inDMEM/7% fetal bovine serum (FBS) at 37° C. with daily exchanges of medium. The cells were then preloaded with 3 μCi/ml myo-[^3H]inositol (New England Nuclear, Boston, Mass.) in inositol-free DMEM (Gibco)/7% FBS (33° C. for 18 hr). The following day, plates were rinsed and then incubated with 10^−6 M of either PTH, PTHrP in DMEM/0.1% BSA, or with DMEM/0.1% BSA alone (40 min at 37° C.), in the presence of 30 mM LiCl. Total inositol phosphate (IPs) were isolated by anion exchange column chromatography as previously described (Iida-Klein et al., (1994 and 1995)), and 1 ml of the eluate (⅛th of total) was counted in a liquid scintillation counter (model LS 60001C, Beckman, Fullerton, Calif.). All points represent mean±S.E.M. of two to three replicates from two or more independent experiments.

[2] = tested on: zPTH3R; assay: Total inositol phosphate accumulation, COS-7 cells expressing zPTH3R; assay type: cell-based, zebrafish; details: ligand 10^−6 M, 30 mM LiCl
zPTH3R, sequence (as listed by the source): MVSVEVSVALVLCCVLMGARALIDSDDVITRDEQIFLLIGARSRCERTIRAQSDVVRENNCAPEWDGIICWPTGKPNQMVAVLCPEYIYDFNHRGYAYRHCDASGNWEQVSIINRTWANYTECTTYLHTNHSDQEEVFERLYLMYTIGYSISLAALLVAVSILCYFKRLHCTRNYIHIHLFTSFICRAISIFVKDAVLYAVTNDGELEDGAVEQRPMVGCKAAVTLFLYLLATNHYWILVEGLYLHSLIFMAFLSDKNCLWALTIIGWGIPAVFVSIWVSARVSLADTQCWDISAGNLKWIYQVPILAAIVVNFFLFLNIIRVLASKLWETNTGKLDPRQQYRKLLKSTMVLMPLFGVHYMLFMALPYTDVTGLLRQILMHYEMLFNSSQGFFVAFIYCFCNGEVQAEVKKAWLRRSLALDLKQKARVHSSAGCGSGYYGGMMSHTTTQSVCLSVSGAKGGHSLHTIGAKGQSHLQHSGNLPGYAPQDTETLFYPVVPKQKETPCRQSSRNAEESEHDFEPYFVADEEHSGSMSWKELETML
Method: as §1

[3] = tested on: zPTH1R; assay: Agonist-stimulated cAMP accumulation, COS-7 cells expressing zPTH1R; assay type: cell-based, zebrafish; details: for cAMP Maximum / EC50: intact COS-7 cells, room temperature
Method: (§2) Plasmid DNAs encoding the two full length ZPTH1Rs (#25 and #29) and the zPTH3R were transiently expressed in COS-7 cells. COS-7 African green monkey kidney cells (approximately 200,000 cells/well in a 24-well plate) were cultured and transfected with plasmid DNA (200 ng/well) as described (Rubin et al., (1998)). After transfection, cells were cultured for 72 hrs at 37° with daily exchanges of medium, followed by an additional 24 hrs at 33° (Gardella et al., (1997)) until they were functionally evaluated after 96 hrs.
(§3) In order to assess agonist-dependent cAMP accumulation of COS-7 cells expressing zPTH1R and zPTH3R, experiments were done in 24-well plates with COS-7 cells stimulated in the presence of increasing concentrations of either PTH or PTHrP, and intracellular cAMP was determined as described (Bergiwtz et al.,(1998)). EC50 values were determined as previously described (Gardella et al., (1996)).
(§4) Competitive binding and cAMP stimulation assays were performed at room temperature with intact COS-7 cells that expressed either the zPTH1R or the zPTH3R, as described in Materials and Methods. Homologous binding reactions utilized ^125I-rPTH with unlabeled rPTH, and ^125I-hPTHrP with unlabeled hPTHrP, heterologous binding reactions utilized ^125I-[…] with unlabeled rPTH. EC50 and IC50 values were determined as previously described (Gardella et al., 1996). Values are the mean±SEM of at least three independent transfections. ND, not determined.

[4] = tested on: zPTH3R; assay: Agonist-stimulated cAMP accumulation, COS-7 cells expressing zPTH3R; assay type: cell-based, zebrafish
Method: as §2, §3, §4

[5] = tested on: zPTH3R; assay: Competitive radioligand binding, COS-7 cells expressing zPTH3R; set-up: species or system zebrafish
Method: as §2
Radioligand studies with COS-7 cells expressing either zPTH1R or zPTH3R were performed as described using either ^125I-labeled [Nle^8,21,Tyr^34]rPTH-(1–34)amide (rPTH) (SEQ ID NO:22) or ^125I-labeled [Tyr^36]hPTHrP-(1–36)amide (PTHrP) (SEQ ID NO:23), and increasing concentrations of either [Tyr^34]hPTH(1–34)amide (PTH) (SEQ ID NO:24), or [Tyr36]hPTHrP(1–36)amide (PTHrP) (SEQ ID NO:25) (Bergwitz et al., (1997)). […] Specific binding was calculated by subtracting radioligand binding in the presence of excess unlabeled peptide from the total binding. […]
Competitive binding and cAMP stimulation assays were performed at room temperature with intact COS-7 cells that expressed either the zPTH1R or the zPTH3R, as described in Materials and Methods. […] EC50 and IC50 values were determined as previously described (Gardella et al., 1996). […] ND, not determined.

[6] = zPPR3, intact COS-7 cells, room temperature

zPTH1R, sequence (as listed by the source): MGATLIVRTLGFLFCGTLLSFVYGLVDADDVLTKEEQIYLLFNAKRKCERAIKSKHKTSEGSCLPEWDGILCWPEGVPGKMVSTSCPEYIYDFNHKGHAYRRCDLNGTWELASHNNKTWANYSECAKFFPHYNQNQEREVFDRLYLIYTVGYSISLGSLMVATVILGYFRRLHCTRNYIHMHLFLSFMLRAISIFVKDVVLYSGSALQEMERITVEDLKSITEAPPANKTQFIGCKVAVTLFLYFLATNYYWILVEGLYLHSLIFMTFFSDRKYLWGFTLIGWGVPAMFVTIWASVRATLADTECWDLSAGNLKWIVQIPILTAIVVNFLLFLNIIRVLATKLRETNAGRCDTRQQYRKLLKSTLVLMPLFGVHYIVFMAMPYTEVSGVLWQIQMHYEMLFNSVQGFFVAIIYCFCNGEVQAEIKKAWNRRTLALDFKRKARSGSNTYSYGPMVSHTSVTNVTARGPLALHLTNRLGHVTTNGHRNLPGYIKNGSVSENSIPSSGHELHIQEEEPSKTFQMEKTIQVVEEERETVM

Row | Substance | increase of IP accumulation [1] | IP accumulation [2] | cAMP Maximum ([3]; zPPR1#25) | EC50 ([3]; zPPR1#29) | cAMP Maximum ([3]; zPPR1#29) | maximal cAMP accumulation ([3]; zPTH1R#25, COS-7 cells) | maximal cAMP accumulation ([3]; zPTH1R#29, COS-7 cells) | EC50 [4, 6] | maximal cAMP accumulation [4, 6] | maximal cAMP accumulation ([4]; zPTH3R, COS-7 cells) | IC50 [5, 6] | Kd ([5]; zPTH3R, COS-7 cells, read-out: apparent Kd) | EC50 ([3]; zPPR1#25) | cAMP activation at low concentration ([4]; zPTH3R, COS-7 cells, 10^−11 M)
1 | AVAEIQLMHNLGKHLNSMERVEWLRKKLQDVHDY [hPTH, [Tyr^34]hPTH(1–34)amide] | 2 fold | no IP accumulation was detectable | 90.4 ± 11.4 pmol/well | 0.8 ± 0.03 nM | 106.2 ± 4.8 pmol/well | 90.4 pmole/well | 106.2 pmole/well | 5.98 ± 0.24 nM | 227.4 ± 41.6 pmol/well | 285 pmol/well | – | – | – | –
2 | [Tyr36]hPTHrP(1–36)amide | 2 fold | no IP accumulation was detectable | 92.4 ± 8.00 pmol/well | 0.3 ± 0.04 nM | 101.6 ± 3.6 pmol/well | 92.4 pmole/well | 101.6 pmole/well | 0.49 ± 0.17 nM | 285.4 ± 3.4 pmol/well | 227 pmol/well | ~3 nM | ~3 nM | 0.9 ± 0.09 nM | significant activation

From patent US7078487B2, “PTH1R receptors” (The General Hospital Corporation, priority 1998, dated 2006)
